Measurements: patent publication US20210214406A1, “AMYLOSPHEROID (ASPD)-LIKE STRUCTURE AND PHARMACEUTICAL COMPOSITION” (TAO HEALTH LIFE PHARMA CO., LTD., priority 2016, published 2021)

What was measured:
[1] = target: anti-ASPD polyclonal antibody (rpASD1); experiment: Dissociation constant with rpASD1 antibody by surface plasmon resonance; type: binding, rabbit; settings: ASPD immobilized as ligand, rpASD1 as analyte, SPR; result in words
[2] = Storage stability at −80° C. (calibration curve slope in sandwich ELISA with two ASPD-specific antibodies); type: physicochemical; settings: stored at −80° C. for 0 month, 3 months, and 6 months
Procedure: A cell secreted-type ASPD structure obtained by expressing hAPP695-sw-G33I of Test Example 14 was stored at −80° C. for 0 month, 3 months, and 6 months. The samples thus obtained were subjected to measurement performed with a sandwich ELISA using two types of ASPD-specific antibodies (neutralizing antibodies) to prepare a calibration curve.

[3] = tested on: old cynomolgus monkey; experiment: Subcutaneous immunization of old cynomolgus monkey with ASPD; type: in vivo
[4] = tested on: New Zealand white rabbits; experiment: Immunogenicity of synthetic ASPD in rabbits (serum dot blot); type: in vivo, rabbit; settings: rabbits immunized six times with 100 μg; Freund's adjuvant, aluminum hydroxide adjuvant, or no adjuvant
Procedure: New Zealand white rabbits (3 per each condition) were immunized six times with 100 μg of synthetic ASPD using Freund's adjuvant, aluminum hydroxide adjuvant, and no adjuvant. Thereafter, the whole blood was collected and the reactivity to the synthetic ASPD in serum was evaluated by dot blot.

## synthetic ASPD: in vitro synthesized spherical Aß assembly produced by slowly stirring a liquid containing wild type Aß1-42
[1]
  dissociation constant (KD) / reactivity to rpASD1: equivalent
[2]
  storage stability (slope of primary regression line of ELISA calibration curve): low storage stability
[3]
  brain glucose metabolism (neural activity): increased
[4]
  reactivity to the synthetic ASPD in serum (dot blot): sufficient reactivity was obtained in all the rabbits even without using adjuvant
